This note sets out measurements from patent US20230172204A1 (BASF SE, priority 2020, published 2023).

Assay [1] relates to Phakopsora pachyrhizi (F129L). Description: Protective control of soybean rust on soybeans (PHAKPA P2). In kind it is in vivo. The settings on record: for % PHAKPA (F129L) Disease level P2 at 4 ppm: protective P2, 4 ppm; for % PHAKPA (F129L) Disease level P2 at 4 ppm / % PHAKPA (F129L) Disease level P2 at 16 ppm: soybean rust F129L; for % PHAKPA (F129L) Disease level P2 at 16 ppm: protective P2, 16 ppm; for PHAKPA (F129L) Disease level (%) P2 at 16 ppm / PHAKPA (F129L) Disease level (%) P2 at 4 ppm: P2 protective, % diseased leaf area.

In assay [2] the test system is Phakopsora pachyrhizi (F129L). Description: Protective control of soybean rust on soybeans (PHAKPA P6). In kind it is in vivo. The settings on record: for % PHAKPA (F129L) Disease level P6 at 4 ppm: protective P6, 4 ppm; for % PHAKPA (F129L) Disease level P6 at 4 ppm / % PHAKPA (F129L) Disease level P6 at 16 ppm: soybean rust F129L; for % PHAKPA (F129L) Disease level P6 at 16 ppm: protective P6, 16 ppm; for PHAKPA (F129L) Disease level (%) P6 at 16 ppm / PHAKPA (F129L) Disease level (%) P6 at 4 ppm: P6 protective, % diseased leaf area.

Each structure is given as a SMILES string.

Consider `CO/N=C(/C(=O)OC)c1cccc(C)c1CO/N=C(\C)c1cc(C(F)(F)F)ccc1F` [compound 198], for which, in assay [1], the “% PHAKPA (F129L) Disease level P2 at 4 ppm” value was found to be 4% and the “% PHAKPA (F129L) Disease level P2 at 16 ppm” value was determined as 1%. In assay [2], the “% PHAKPA (F129L) Disease level P6 at 4 ppm” value is 0% and the “% PHAKPA (F129L) Disease level P6 at 16 ppm” value came out at 0%.
For the compound `CO/N=C(/C(=O)OC)c1cccc(C)c1CO/N=C(\C)c1ccc(C(C)=O)cc1` [compound 166], in assay [1], the “% PHAKPA (F129L) Disease level P2 at 4 ppm” value is on record as 100% and the “% PHAKPA (F129L) Disease level P2 at 16 ppm” value turned out to be 83%. Moreover, in assay [2], the “% PHAKPA (F129L) Disease level P6 at 4 ppm” value is reported as 90% and the “% PHAKPA (F129L) Disease level P6 at 16 ppm” value is reported as 43%.
For `CNC(=O)/C(=N/OC)c1cccc(C)c1CO/N=C(\C)c1ccccc1OC1CC1` [compound 329] the same measures were 100%, 53%, 100% and 73%.
For `CO/N=C(/C(=O)OC)c1cccc(C)c1CO/N=C(\C)c1ccccc1OC(F)(F)F` [compound 236] the same measures were 97%, 77%, 97% and 100%.
As to `CO/N=C(/C(=O)OC)c1ccccc1CO/N=C(\C)c1ccccc1F` [reference compound], in assay [1], the “PHAKPA (F129L) Disease level (%) P2 at 16 ppm” value (from here on “PHAKPA … (%) P2 at 16 ppm”) amounted to 83%. Also, the “PHAKPA (F129L) Disease level (%) P6 at 16 ppm” value (“PHAKPA … (%) P6 at 16 ppm” for short) in assay [2] amounted to 77%.
As for `CNC(=O)/C(=N/OC)c1cccc(C)c1CO/N=C(\C)c1ccc(OC(F)(F)F)cc1C` [compound 261], in assay [1], the “% PHAKPA (F129L) Disease level P2 at 4 ppm” value was found to be 70% and the “% PHAKPA (F129L) Disease level P2 at 16 ppm” value came to 9%. In assay [2], the “% PHAKPA (F129L) Disease level P6 at 4 ppm” value was determined as 87% and the “% PHAKPA (F129L) Disease level P6 at 16 ppm” value is 32%.
The like results for `CO/N=C(/C(=O)OC)c1cccc(C)c1CO/N=C(\C)c1ccc(Cc2ccccc2)cc1OC(F)(F)F` [compound 416] were, in that order, 57%, 27%, 67% and 25%.
Take `CNC(=O)/C(=N/OC)c1cccc(C)c1CO/N=C(\C)c1ccc(C#N)cc1` [Ex. 159]: in assay [1], the “PHAKPA … (%) P2 at 16 ppm” value was found to be 0%, the “% PHAKPA (F129L) Disease level P2 at 4 ppm” value stood at 28% and the “% PHAKPA (F129L) Disease level P2 at 16 ppm” value is reported as 2%. For the same compound, in assay [2], the “PHAKPA … (%) P6 at 16 ppm” value came to 0%, the “% PHAKPA (F129L) Disease level P6 at 4 ppm” value is on record as 28% and the “% PHAKPA (F129L) Disease level P6 at 16 ppm” value stood at 1%.
With `CNC(=O)/C(=N/OC)c1cccc(C)c1CO/N=C(\C)c1cccc(N2CC(F)(F)C2)c1` [Ex. 282], in assay [1], the “PHAKPA … (%) P2 at 16 ppm” value is 15% and the “% PHAKPA (F129L) Disease level P2 at 16 ppm” value turned out to be 15%. Further, in assay [2], the “PHAKPA … (%) P6 at 16 ppm” value came to 18% and the “% PHAKPA (F129L) Disease level P6 at 16 ppm” value is reported as 18%.
On to `C#Cc1cccc(/C(C)=N/OCc2c(C)cccc2/C(=N\OC)C(=O)NC)c1F` [compound 401], for which, in assay [1], the “% PHAKPA (F129L) Disease level P2 at 4 ppm” value was determined as 17% and the “% PHAKPA (F129L) Disease level P2 at 16 ppm” value is reported as 5%. Also, in assay [2], the “% PHAKPA (F129L) Disease level P6 at 4 ppm” value was determined as 32% and the “% PHAKPA (F129L) Disease level P6 at 16 ppm” value is reported as 4%.
Turning to `CO/N=C(/C(=O)OC)c1cccc(C)c1CO/N=C(\C)c1c(F)cc(F)cc1C(F)(F)F` [compound 360], in assay [1], the “% PHAKPA (F129L) Disease level P2 at 4 ppm” value came out at 53% and the “% PHAKPA (F129L) Disease level P2 at 16 ppm” value is given as 9%. Also, in assay [2], the “% PHAKPA (F129L) Disease level P6 at 4 ppm” value amounted to 80% and the “% PHAKPA (F129L) Disease level P6 at 16 ppm” value is recorded as 5%.
The like results for `CNC(=O)/C(=N/OC)c1cccc(C)c1CO/N=C(\C)c1ccc(Cl)c(C)c1` [compound 107] were, in that order, 1%, 0%, 15% and 1%.
With `CO/C=C(/C(=O)OC)c1ccccc1CO/N=C(\C)c1cccc(C(F)(F)F)c1` [reference compound], the “PHAKPA (F129L) Disease level (%) P2 at 4 ppm” value (“PHAKPA … (%) P2 at 4 ppm” for short) in assay [1] came to 6%. Further, the “PHAKPA (F129L) Disease level (%) P6 at 4 ppm” value (“PHAKPA … (%) P6 at 4 ppm” for short) in assay [2] came to 30%.
Regarding `CCc1ccc(/C(C)=N/OCc2c(C)cccc2/C(=N\OC)C(=O)NC)cc1` [Ex. 165], in assay [1], the “PHAKPA … (%) P2 at 4 ppm” value is recorded as 0%, the “% PHAKPA (F129L) Disease level P2 at 4 ppm” value worked out at 0% and the “% PHAKPA (F129L) Disease level P2 at 16 ppm” value is given as 0%. Besides, in assay [2], the “PHAKPA … (%) P6 at 4 ppm” value came to 27%, the “% PHAKPA (F129L) Disease level P6 at 4 ppm” value was 17% and the “% PHAKPA (F129L) Disease level P6 at 16 ppm” value was determined as 0%.
For the compound `CO/N=C(/C(=O)OC)c1cccc(C)c1CO/N=C(\C)c1ccc(Cl)cc1` [Ex. 154], in assay [1], the “PHAKPA … (%) P2 at 16 ppm” value is recorded as 25%, the “% PHAKPA (F129L) Disease level P2 at 4 ppm” value is 30% and the “% PHAKPA (F129L) Disease level P2 at 16 ppm” value is 13%. Besides, in assay [2], the “PHAKPA … (%) P6 at 16 ppm” value is 17%, the “% PHAKPA (F129L) Disease level P6 at 4 ppm” value was 63% and the “% PHAKPA (F129L) Disease level P6 at 16 ppm” value stood at 9%.
As to `CNC(=O)/C(=N/OC)c1cccc(C)c1CO/N=C(\C)c1ccc(Cl)c(F)c1CC(F)(F)F` [compound 412], in assay [1], the “% PHAKPA (F129L) Disease level P2 at 4 ppm” value stood at 47% and the “% PHAKPA (F129L) Disease level P2 at 16 ppm” value was 6%. Besides, in assay [2], the “% PHAKPA (F129L) Disease level P6 at 4 ppm” value is 40% and the “% PHAKPA (F129L) Disease level P6 at 16 ppm” value is given as 6%.
`CNC(=O)/C(=N/OC)c1cccc(C)c1CO/N=C(\C)c1ccccc1C#N` [compound 225]: in assay [1], the “% PHAKPA (F129L) Disease level P2 at 4 ppm” value was found to be 83% and the “% PHAKPA (F129L) Disease level P2 at 16 ppm” value turned out to be 27%. In assay [2], the “% PHAKPA (F129L) Disease level P6 at 4 ppm” value is 100% and the “% PHAKPA (F129L) Disease level P6 at 16 ppm” value stood at 97%.
The like results for `CNC(=O)/C(=N/OC)c1cccc(C)c1CO/N=C(\C)c1cccc(N2CC(F)(F)C2)c1` [compound 44] were, in that order, 77%, 17%, 77% and 21%.
The like results for `CNC(=O)/C(=N/OC)c1cccc(C)c1CO/N=C(\C)c1ccc(F)cc1C(F)(F)F` [compound 260] were, in that order, 22%, 0%, 22% and 0%.
For the compound `CNC(=O)/C(=N/OC)c1cccc(C)c1CO/N=C(\C)c1cc(F)ccc1Br` [compound 248], in assay [1], the “% PHAKPA (F129L) Disease level P2 at 4 ppm” value worked out at 33% and the “% PHAKPA (F129L) Disease level P2 at 16 ppm” value amounted to 2%. Further, in assay [2], the “% PHAKPA (F129L) Disease level P6 at 4 ppm” value was 30% and the “% PHAKPA (F129L) Disease level P6 at 16 ppm” value was 2%.
Regarding `COC/C(=N\OCc1c(C)cccc1/C(=N\OC)C(=O)OC)c1cccc(C(F)(F)F)c1` [compound 191], in assay [1], the “% PHAKPA (F129L) Disease level P2 at 4 ppm” value amounted to 77% and the “% PHAKPA (F129L) Disease level P2 at 16 ppm” value turned out to be 2%. Further, in assay [2], the “% PHAKPA (F129L) Disease level P6 at 4 ppm” value worked out at 83% and the “% PHAKPA (F129L) Disease level P6 at 16 ppm” value was 22%.
As to `CNC(=O)/C(=N/OC)c1ccccc1CO/N=C(\C)c1cccc(C(F)(F)F)c1` [reference compound], in assay [1], the “PHAKPA … (%) P2 at 4 ppm” value was 12%. Further, in assay [2], the “PHAKPA … (%) P6 at 4 ppm” value was found to be 38%.
